The text below walks through data of patent US10670605B2, “Cysteine reactive probes and uses thereof” (The Scripps Research Institute, priority 2015, dated 2020).

Each structure is given as a SMILES string. Structures can show the parent of a compound that is named as a salt.

Assay [1] addresses T1, Cys residues in primary human T cells (Homo sapiens, UniProt Q15306).
T1 sequence (Q15306 1-451): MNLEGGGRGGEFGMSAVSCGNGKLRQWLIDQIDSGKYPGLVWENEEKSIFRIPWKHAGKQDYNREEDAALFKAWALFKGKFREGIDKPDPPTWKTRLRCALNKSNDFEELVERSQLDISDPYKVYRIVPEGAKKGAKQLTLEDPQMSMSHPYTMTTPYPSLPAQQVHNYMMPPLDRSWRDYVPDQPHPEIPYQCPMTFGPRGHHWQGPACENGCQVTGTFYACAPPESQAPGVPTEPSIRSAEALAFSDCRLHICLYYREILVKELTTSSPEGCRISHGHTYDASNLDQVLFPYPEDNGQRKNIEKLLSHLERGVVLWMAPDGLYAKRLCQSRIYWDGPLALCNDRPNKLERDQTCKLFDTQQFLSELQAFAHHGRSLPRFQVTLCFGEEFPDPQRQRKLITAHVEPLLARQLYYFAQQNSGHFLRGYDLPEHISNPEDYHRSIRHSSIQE
In words: isoTOP-ABPP of compound-treated primary human T cells. It counts as cell-based. The following applies: IRF4 C194 (Q15306).

Assay [2] deals with splenic T cells from C57BL/6 mice. In words: Activation of primary mouse T cells (CD25, CD69). It counts as cell-based. The following applies: C57BL/6, 8 h. How it is done:
Spleens were harvested from female mice, perfused with collagenase, and incubated at 37° C. with 5% CO2 for 30 min. After this time, the spleens were homogenized. Cells that passed through a 100 μm cell strainer were collected and washed with RPMI. T cells were isolated from the splenocytes using the EasySepTM Mouse T cell Isolation Kit (19851; […]) according to manufacturer's instructions. 96-well plates were coated with anti-CD3 (1:200; BioXcell) and anti-CD28 (1:500; 302933; BioLegend) in PBS (100 μL/well) overnight at 4° C. The plates were then washed twice with PBS and to each well was added 500,000 primary T cells in 100 μL of RPMI supplemented with 10% FBS, glutamine, and Pen-Strep. Cells were then treated with 100 μL of media containing compound at the indicated concentrations (final well volume of 200 μL). Cells were left at 37° C. in a 5% CO2 incubator for the indicated periods of time and harvested by centrifugation (500 g, 8 min, 4° C.), followed by washing with PBS. […] Data was then analyzed with FlowJo software (Treestar Inc.). […]

Assay [3] concerns the target T2, TIGAR (Homo sapiens, UniProt Q9NQ88).
T2 construct: His6 (N); made in house; host or cells: E. coli BL21(DE3)
In words: TIGAR activity assay. The following applies: WT-TIGAR, concentration series. In kind it is biochemical. How it is done: TIGAR activity assay was conducted as described in Gerin et al. The Biochemical Journal 458:439-448 (2014). Formation of 3PG (3-phosphoglycerate) production from 23BPG (2,3-bisphosphoglycerate) was measured spectrophotometrically on a TECAN plate reader, measuring decrease in absorbance at 340 nm in clear, flat-bottom 96 well microplate (Corning® Costar®). 2 μL of recombinant TIGAR (10 mg/mL) was diluted into 1 mL dilution buffer (25 mM HEPES, pH 7.1, 25 mM KCl, 1 mM MgCl2). 25 μL of diluted protein was incubated for 1 h with the indicated concentration of compound (1 μL, 25× stock in DMSO). Then 75 μL of assay mixture comprised of 25 mM HEPES (pH 7.1), 25 mM KCl, 1 mM MgCl2, 0.5 mM NADH, 1 mM DTT, 1 mM 23BPG, 1 mM ATP-Mg, the equivalent of 1 μL each of rabbit muscle GAPDH (4000 units/mL, Sigma, G5537) and yeast PG kinase (6300 units/mL, Sigma, P7634) was added to the protein and decrease in absorbance was monitored at 340 nm. The background, calculated from samples lacking TIGAR, was subtracted from samples containing TIGAR. Experiments were performed in quadruplicate.

Assay [4] addresses cysteines in MDA-MB-231 and Ramos cells (Homo sapiens, UniProt Q8WUM4). In words: Competitive isoTOP-ABPP in situ (fragment-treated cells). It counts as cell-based. The following applies: cysteine Q8WUM4_C90; fragment 200 μM, in situ, 231 (MDA-MB-231) cells.

T2 sequence (Q9NQ88 whole entry): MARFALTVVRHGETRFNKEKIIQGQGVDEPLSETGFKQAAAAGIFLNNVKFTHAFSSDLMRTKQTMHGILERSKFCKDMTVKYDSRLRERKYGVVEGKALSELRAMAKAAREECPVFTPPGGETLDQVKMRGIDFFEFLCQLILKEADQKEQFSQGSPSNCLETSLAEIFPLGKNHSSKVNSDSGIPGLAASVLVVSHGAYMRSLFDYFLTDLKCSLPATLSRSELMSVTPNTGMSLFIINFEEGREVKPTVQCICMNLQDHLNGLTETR
cysteines in MDA-MB-231 and Ramos cells, sequence (Q8WUM4 whole entry, the tested form may be a part): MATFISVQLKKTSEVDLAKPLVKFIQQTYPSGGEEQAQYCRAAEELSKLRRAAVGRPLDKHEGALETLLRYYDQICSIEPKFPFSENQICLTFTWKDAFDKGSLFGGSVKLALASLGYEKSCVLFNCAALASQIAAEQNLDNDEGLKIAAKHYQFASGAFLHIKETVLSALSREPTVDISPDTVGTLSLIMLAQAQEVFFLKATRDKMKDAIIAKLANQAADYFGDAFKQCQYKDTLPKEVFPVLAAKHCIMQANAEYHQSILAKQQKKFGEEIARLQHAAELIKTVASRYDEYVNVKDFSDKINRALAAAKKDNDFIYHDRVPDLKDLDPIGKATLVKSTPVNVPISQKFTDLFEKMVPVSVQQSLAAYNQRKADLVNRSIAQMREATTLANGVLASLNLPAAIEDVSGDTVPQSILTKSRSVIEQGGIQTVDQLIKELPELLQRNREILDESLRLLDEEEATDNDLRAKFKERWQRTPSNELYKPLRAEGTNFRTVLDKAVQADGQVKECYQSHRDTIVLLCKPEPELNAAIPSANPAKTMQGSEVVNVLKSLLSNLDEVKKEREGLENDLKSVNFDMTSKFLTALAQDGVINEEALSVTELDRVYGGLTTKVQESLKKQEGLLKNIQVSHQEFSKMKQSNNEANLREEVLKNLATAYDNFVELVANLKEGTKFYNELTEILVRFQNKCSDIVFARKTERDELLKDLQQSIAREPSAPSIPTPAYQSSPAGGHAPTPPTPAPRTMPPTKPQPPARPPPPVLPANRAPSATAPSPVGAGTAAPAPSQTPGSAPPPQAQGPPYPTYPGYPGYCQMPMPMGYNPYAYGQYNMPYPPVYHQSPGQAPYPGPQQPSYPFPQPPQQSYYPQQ

Take `COC(=O)/C=C/C(=O)OC` [DMF, dimethyl fumarate]: the “R value (DMSO/DMF)” value in assay [1] (DMF 10 μM 4h) is 1.69; in assay [1] (DMF 25 μM 4h) it was 1.78; in assay [1] (DMF 50 μM 1h) it was 1.32; in assay [1] (DMF 50 μM 2h) it was 3.13; in assay [1] (DMF 50 μM 4h), 5.25. Also, in assay [2], the “activation of primary mouse splenic T cells” value is reported as “suppressed”.

Consider `C=CC(=O)N(c1ccccc1)c1ccc(Br)cc1` [compound 5], for which, in assay [3], the “plateau of inhibition of TIGAR substrate turnover” value is 70%.

Take `CC(C)CCOCCNC(=O)CCl` [compound 27]: the “reactivity profile of liganded cysteine Q8WUM4_C90 with fragment electrophile (isoTOP-ABPP ratio)” value in assay [4] is 0.6.
